Experimental data reported in patent US20230340498A1, “COMPOSITIONS AND METHODS FOR INDUCIBLE ALTERNATIVE SPLICING REGULATION OF GENE EXPRESSION” (The Children's Hospital of Philadelphia, priority 2020, published 2023).

System: SMN2-on minigene
Assay: SMN2-on cassette Firefly luciferase reporter assay in transfected HEK293 cells
Assay type: cell-based, Human
Details: HEK293 cells, varying doses
Method: Cell culture, transfection, and LMI070/RG7800 treatment. Human embryonic kidney (HEK293) cells (obtained from CHOP Research Vector Core stock) were maintained in DMEM media containing 10% Fetal Bovine Serum (FBS), 1% L-Glutamine and 1% penicillin/streptomycin at 37° C. with 5% CO2. Cells were cultured in 24 well plates and transfected at 80-90% confluence using Lipofectamine 2000 transfection reagent, according to the manufacturer’s protocol. For all experiments, 4 hours after plasmid transfection, cells were treated with LMI070 (MedChemExpress, HY-19620, suspended in DMSO) or RG7800 (MedChemExpress, HY-101792A, suspended in H2O) at the indicated concentrations. Cells were tested for mycoplasma by Research Vector Core. None of the cells used in the study were listed in ICLAC database of commonly misidentified cell lines.
In vitro luciferase assays. HEK293 cells were cultured in DMEM (10% FBS (v/v), 1% Pen/ Strep (v/v), and 1% L-glutamine (v/v) in a 24-well plate. At 70%-80% confluence, cells were co-transfected with the Xon.Firefly luciferase cassettes (0.3 µg/well) and a SV40p-Renilla luciferase cassette as transfection control (0.02 µg/well). Four hours after transfections cells were treated either with LMI070 or RG7800 at indicated concentrations. At 24 h after transfection, cells were rinsed with ice-cold PBS and Renilla and Firefly luciferase activities were assessed using the Dual-Luciferase Reporter Assay System (Promega) according to the manufacturer’s instructions. Luminescent readouts were obtained with a Monolight 3010 luminometer (Pharmigen). Relative light units (RLUs) were calculated as the quotient of […] RLUs and results expressed relative to mock treated control cells.
For this, SMN2-on cassettes were generated to provide drug-induced reporter gene expression. HEK293 cells were transfected with the SMN2-on expression cassettes and luciferase activity evaluated in response to varying doses of LMI070 or RG7800. […]

## CCc1nc(C)cn2nc(-c3cc(=O)n4cc(C5CCN(C)CC5)cc(C)c4n3)cc12 [RG7800]
  luciferase activity from the SMN2-on minigene: induced luciferase activity
